# According to patent publication US9980943B2, “Methods of treating muscular dystrophy” (BOARD OF REGENTS OF THE NEVADA SYSTEM OF HIGHER EDUCATION, …, priority 2013, dated 2018):
# Like-named read-outs stand apart in the source and are kept apart here.
# System: α7 integrin (LacZ reporter in α7LacZ+/− myoblasts)
# Experiment: qHTS of the LOPAC library and MLSMR (online screen, α7LacZ+/− myoblasts)
# Details: for activation at 0.307 µM / activation at 1.53 µM / activation at 7.66 µM / activation at 38.3 µM / Emax / EC50: Mus musculus, Myoblast; for activation at 0.307 µM: read-out: Activity at 0.307 uM [%] **; for activation at 1.53 µM: read-out: Activity at 1.530 uM [%] **; for activation at 7.66 µM: read-out: Activity at 7.660 uM [%] **; for activation at 38.3 µM: read-out: Activity at 38.30uM [%] **; for EC50: read-out: Fit LogAC50 (converted)
# [1] = 48 h, read-out: Fit Infinite Activity [%]
SMILES,activation at 0.307 µM (48 h),activation at 1.53 µM (48 h),activation at 7.66 µM (48 h),activation at 38.3 µM (48 h),Emax [1],Emax (read-out: Max Response [%]),EC50,Curve Description,Score
Cc1ccc(NC(=O)COc2ccccc2CNC(C)(C)CC(C)(C)C)cc1 [Compound 131],10.7%,7.12%,16.2%,182%,184%,182%,–,–,–
COc1ccc2oc(C[S+]([O-])c3ccccc3)c(C(=O)O)c2c1 (stereo not drawn) [Compound 109],5.2%,10.1%,20.9%,174%,174%,174%,12.6 µM,–,–
CCCN1C2CCCC1CC(NC(=O)c1cccc([N+](=O)[O-])c1)C2 (stereo not drawn) [Compound 164],1.16%,0.0123%,22%,91.6%,91.8%,91.6%,10 µM,Partial,42
C/C(CC(=O)Nc1ccc(Cl)c(C(F)(F)F)c1)=N\NC(=O)c1cnccn1 [Compound 38],-0.625%,-2.88%,69.2%,72.7%,73.5%,–,4.47 µM,–,–
COc1ccc(CCNC(=O)c2cc(-c3cc(C)ccc3O)n[nH]2)cc1OC [Compound 217],10.4%,9.29%,27.5%,65.2%,66.2%,65.2%,10 µM,–,–
COc1ccccc1C(=O)NCC(=O)/N=N/c1c(O)n(C(C)C)c2ccccc12 [Compound 139],15.2%,14.6%,25%,81.7%,82%,81.7%,–,–,–
O=[N+]([O-])c1cccc(S(=O)(=O)N2CCN(S(=O)(=O)N3CCOCC3)CC2)c1 [Compound 158],0.67%,0.634%,26.3%,65.9%,70.7%,65.9%,10 µM,–,–
COC(=O)c1ccccc1NC(=O)c1cc[n+]([O-])cc1 [Compound 100],-24.5%,-4.99%,30.1%,56.3%,64%,56.3%,3.98 µM,–,–
CC1=C(C#N)C(=O)N(C)C(=O)/C1=C\NNc1ccc(F)cc1 [Compound 203],-46%,-36.9%,8.42%,51.8%,59.4%,51.8%,–,–,–
COC(=O)c1ccc(C2C(C(=O)c3cc4ccccc4o3)=C(O)C(=O)N2CCN2CCOCC2)cc1 (stereo not drawn) [Compound 141],-17.2%,-18.3%,2.6%,82.7%,82.8%,82.7%,10 µM,–,–
COc1ccc(C(=O)N/C(=C/c2cccnc2)C(=O)N2CCN(C)CC2)cc1OC [Compound 92],2.57%,13.3%,54.9%,75%,77%,75%,4.47 µM,–,–
CCOc1ccc(S(=O)(=O)NCCC(=O)NCC(c2cccs2)N2CCOCC2)cc1 (stereo not drawn) [Compound 14],-21.6%,3.54%,59.1%,61.7%,62.8%,–,2.24 µM,–,–
O=Cc1cn(Cc2ccc(F)cc2Cl)c2ccccc12 [Compound 209],13%,10.6%,18.6%,139%,142%,139%,–,–,–
CC(C)(C)N/C=C(\C#N)S(=O)(=O)c1ccc(Br)cc1 [Compound 173],10.4%,21.1%,42.1%,72.3%,93%,72.3%,–,–,–
CN(C)/C(S)=N/c1cccc(C(F)(F)F)c1 [Compound 172],8.95%,7.22%,31.2%,71.2%,73.8%,71.2%,10 µM,–,–
CC(=O)Nc1nonc1-c1nc2ccccc2n1CCC(C)C [Compound 219],-8.22%,-3.05%,21.4%,66%,76.4%,66%,–,–,–
NC(=O)c1cccnc1Oc1ccc(Cl)cc1Cl [Compound 113],-4.94%,-7.73%,23.5%,105%,106%,105%,10 µM,–,–
O=c1oc2c(-c3cccc(F)c3)cc(O)cc2s1 [Compound 23],12.6%,18.8%,87.3%,98.9%,98.5%,–,3.98 µM,–,–

SMILES,activation at 0.307 µM (48 h),activation at 1.53 µM (48 h),activation at 7.66 µM (48 h),activation at 38.3 µM (48 h),Emax [1],Emax (read-out: Max Response [%]),EC50,Curve Description,Score
Cc1cc(N2CCOCC2)nc2ccc(N/C(S)=N/Cc3ccc4c(c3)OCO4)cc12 [Compound 122],2.5%,11.5%,54%,107%,128%,107%,10 µM,–,–
CCOc1ccccc1NC(=O)c1cccc2c1C(=O)N(C1CCCCC1)C2 [Compound 15],-13.7%,4.71%,58%,73.6%,75.3%,–,3.16 µM,–,–
COc1ccc(Nc2ncnc3ccc(C)cc23)cc1 [Compound 58],-29.7%,3.35%,49.1%,82.8%,95.6%,82.8%,3.55 µM,–,–
COc1ccccc1-c1coc2c3c(ccc2c1=O)OC1CCCCN1C3 (stereo not drawn) [Compound 3],-34.2%,9.57%,154%,159%,158%,–,2.24 µM,–,–
COc1cc(Cl)cc(CN2CCC(CCC(=O)NC3CC3)CC2)c1OC [Compound 167],-38.2%,-33.5%,9.56%,44%,48.6%,44%,–,–,–
Fc1ccc(-c2ccnn2-c2ccccc2)cc1 [Compound 107],-17.2%,-3.24%,46%,73.3%,76.4%,73.3%,4.47 µM,–,–
CN(C)S(=O)(=O)c1ccc(C(=O)Nc2nc3ccccc3[nH]2)cc1 [Compound 116],-9.1%,-3.94%,36.7%,84.9%,94.8%,84.9%,8.91 µM,–,–
CS(=O)(=O)N(Cc1ccc(C(=O)NC2CCCC2)cc1)c1ccccc1 [Compound 63],-3.95%,2.24%,57.8%,196%,199%,196%,10 µM,–,–
CCS(=O)(=O)N1CCCC(C(=O)c2ccc(OC)cc2C)C1 (stereo not drawn) [Compound 83],-13.5%,-10.6%,41.5%,149%,162%,149%,11.2 µM,–,–
O=C(NCCCn1ccnc1)/C(=C/c1cccs1)NC(=O)c1ccco1 [Compound 124],-19.2%,-7.39%,35.5%,85.9%,103%,85.9%,–,–,–
O=C(N/N=C/c1cn[nH]c1-c1ccc(F)cc1)c1ccncc1 [Compound 128],17.3%,12.6%,22.6%,152%,154%,152%,–,–,–
Cc1ccccc1C(=O)Nc1scc(-c2ccc(Br)cc2)c1C(=O)O [Compound 4],9.85%,38.3%,119%,137%,137%,–,2.82 µM,–,–
CCOC(=O)Cc1csc(NC(=S)NC(=O)c2cc(OC)c(OC)c(OC)c2)n1 [Compound 20],-18.1%,-4.46%,69.3%,82.9%,83.9%,–,3.55 µM,–,–
CCNC(=O)CSc1nc(-c2ccc(F)cc2)cs1 [Compound 61],-0.123%,25.8%,82.4%,126%,136%,126%,5.01 µM,–,–
Cc1ccccc1C(=O)Nc1nnc(SC(C)C)s1 [Compound 196],0%,0%,20.6%,65.1%,66.6%,65.1%,10 µM,–,–
CN(CC(=O)Nc1cccc(F)c1)C(=O)c1ccc(-c2ccc(Cl)cc2)o1 [Compound 90],2.83%,8.12%,27.2%,146%,146%,146%,11.2 µM,–,–
COc1cc(CNCc2ccc(C(=O)O)cc2)ccc1OCc1ccc(F)cc1 [Compound 57],1%,14.6%,82.2%,113%,115%,113%,4.47 µM,–,–
